According to article PMC3904085 (Frontiers in Neuroscience, 2014):
Read-outs that look alike come from different tables or passages of the source.

Columns and labels:
[1] = system: mice lacking OX1 receptors; assay: DRL 36-s schedule of reinforcement in OX1 KO mice; format: in vivo, mouse; conditions: for Lever Presses Mean / Reinforcers Mean: OX1 KO mice DRL-36-s, raw data
From the text: (§1) Rats were acclimated to housing conditions for 4 days, followed by sham dosing once daily for 3 days, prior to the experiment. For DRL experiments, male Sprague–Dawley rats weighing between 300 and 350 g at the beginning of the behavioral experiments (Holtzman, Madison, WI) were housed in pairs. For mouse DRL studies, male C57Bl/6 mice (Taconic Farms, Hudson, NY) or mice lacking either OX1 or OX2 receptors, around 8 weeks of age, were obtained from private breeding colonies at Taconic Farms (Hudson, NY). OX1 and OX2 receptor knockout mice were generated using in vitro fertilization of embryos in C57Bl/6 female mice with sperm harvested from male mice obtained from the University of Texas Southwestern Medical Center (Dallas, TX), and backcrossed for at least 10 generations. Mice and rats were housed in separate colony rooms, which were maintained at 22°C and 60% relative humidity. For rat DRL experiments, water was available for a 20-min period following the daily behavioral session. Based on recommendations from the animal care and use committee, the mouse DRL assay was developed using food deprivation rather than water deprivation. […] All experiments were conducted during the light cycle and in compliance with the Guide for the Care and Use of Laboratory Animals under protocols approved by a local animal care and use committee.
(§2) The levers in these chambers were mounted on one wall with an adjacent food magazine next to the lever in the middle of the wall. A reinforced response caused a clicker apparatus to activate and the pellet feeder to deposit one 45-mg sucrose pellet (BioServ, Frenchtown, NJ) into the food magazine. The house light, which was mounted on the ceiling, was turned on when the session began, remained on throughout the entire session, and was turned off at the end of the session. Each experimental chamber was enclosed in a melamine sound-attenuating cubicle and equipped with a white noise generator to provide masking noise.
(§3) Each mouse was initially trained under a variable time 60-s operant schedule for 5 days, followed by fixed ratio-1 ratio schedule for 5 days. After the mice had acquired lever-pressing behavior, they were trained during daily DRL 6-s sessions for ~1 week, then mice progressed through weekly ascending DRL requirements (12, 18, 24, 30 s) before moving to DRL 36-s sessions. […] Experimental sessions lasted for 45 min and were conducted 5 days/week during light hours.
(§4) Drugs were administered to the animals once or twice weekly with at least 1 week between subsequent drugs to minimize possible carryover effects. Drug treatments were administered on Tuesdays and Fridays. No treatments were administered on other test days. Wednesdays were control days. “Control” behavior was calculated as the pooled mean lever presses or reinforcers received during Wednesday sessions across all Wednesdays for the duration of each study. Performance was normalized to percent of control by dividing total responses (or reinforcers) for each drug or vehicle treatment by the mean number of responses (reinforcers) in the respective pooled control condition, multiplied by 100.
(§5) The data analyses were conducted on the raw response and reinforcement data. All behavioral data are expressed as the mean ± s.e.m. normalized to the control condition.

Sprague–Dawley rats = assay: DRL 72-s schedule of reinforcement in rats; format: in vivo, rat; conditions: for Lever Presses Mean / Reinforcers Mean: HSD rats DRL-72-s, raw data
From the text: Each chamber was enclosed in a melamine sound-attenuating cubicle. A white noise generator provided masking noise. The interior of each chamber consisted of three levers mounted on one wall with a house light mounted on the opposite wall. The house light was turned on at initiation of each test session and was turned off at the termination of each session. A water access port was situated next to the lever in the middle of the wall, wherein a reinforced response caused a clicker apparatus to sound paired with a dipper (0.02-ml cup) to be lifted from a water trough to an opening in the floor of the access port for 4 s.
Rats were initially trained under an alternative fixed ratio 1 water reinforcement schedule with a fixed 1-min time schedule for automatic reinforcement. Thus, each response was reinforced, with water also provided every minute in the absence of a response. […] Following acquisition of lever-pressing behavior, rats were trained daily on DRL 18-s sessions for ~2 weeks, following which they were advanced to DRL 72-s sessions. Responding on these sessions became stable after ~8 weeks. Experimental test sessions lasted for 1 h and were conducted 5 days/week during light hours.
as §4, §5

human OX2 receptors [2] = molecular target: T1, human OX2 receptors (Homo sapiens, UniProt O43614); assay: Intracellular calcium mobilization (FLIPR), antagonist mode vs EC70 orexin-A; format: cell-based; design: expressed in transfected cells; conditions: HEK293 cells, mean ± s.e.m. (n); for Kb: read-out: Functional antagonist activity, Kb hOX2
T1 sequence (O43614 1-444): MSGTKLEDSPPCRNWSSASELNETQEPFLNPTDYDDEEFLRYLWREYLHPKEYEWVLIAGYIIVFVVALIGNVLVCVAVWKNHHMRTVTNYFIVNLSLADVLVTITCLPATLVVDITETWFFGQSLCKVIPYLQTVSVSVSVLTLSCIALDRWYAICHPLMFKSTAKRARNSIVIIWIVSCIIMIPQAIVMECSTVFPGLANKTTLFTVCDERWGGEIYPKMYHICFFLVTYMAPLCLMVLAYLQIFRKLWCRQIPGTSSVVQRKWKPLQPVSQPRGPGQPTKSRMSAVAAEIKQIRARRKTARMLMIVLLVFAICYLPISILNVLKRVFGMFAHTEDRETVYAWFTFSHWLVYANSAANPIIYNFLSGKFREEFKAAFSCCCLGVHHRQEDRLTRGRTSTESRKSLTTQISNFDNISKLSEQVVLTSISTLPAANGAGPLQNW

[3] = system: mice lacking OX2 receptors; assay: DRL 36-s schedule of reinforcement in OX2 KO mice; format: in vivo, mouse; conditions: for Lever Presses Mean / Reinforcers Mean: OX2 KO mice DRL-36-s, raw data
From the text: as §1, §2, §3, §4, §5

human OX2 receptors [4] = molecular target: T1, human OX2 receptors; assay: biochemical
Method: Briefly, the membranes were isolated by homogenizing cell pellet in 30 ml (w/v) 50 mM Tris buffer (pH 7.4) containing Roche Complete EDTA free protease tablets. […] All binding studies were conducted at a final volume of 200 μl. […] Then 300 μl of this solution was placed in column B on a Nunc polypropylene 96-well plate (Thermo Fisher Scientific, Inc., Rochester, NY). Serial dilutions were then made using a Biomek 2000 (Beckman Coulter, Inc., Fullerton, CA) from a starting concentration of 40 μM. […] All binding was terminated by rapid filtration using a TOMTEC 96-well cell harvester (Hamden, CT) through GF/A filters that had been presoaked with 0.3% polyethyleneimine. The filters were washed with 5.0 ml ice-cold 50 mM Tris buffer (pH 7.4) and air-dried overnight. […] Protein concentrations were measured using Coomassie Protein Plus Assay Reagent (Pierce, Rockford, IL) and serum albumin standards.

[5] = mice lacking OX1 receptors, 100 mg/kg
[6] = dose 100 mg/kg PO, listed as almorexant inactive, 100 mg/kg
[7] = dose 100 mg/kg, listed as almorexant inactive

CNC(=O)[C@@H](c1ccccc1)N1CCc2cc(OC)c(OC)cc2[C@@H]1CCc1ccc(C(F)(F)F)cc1 [Almorexant (R)]
Lever Presses Mean ([1]; dose 100 mg/kg): 103.75 | Reinforcers Mean ([1]; dose 100 mg/kg): 28.88 | Lever pressing, effect in words [1, 5]: significant decrease | Reinforcers received, effect in words [1, 5]: significant increases | Lever Presses Mean (Sprague–Dawley rats; [6]): 64.73 | Reinforcers Mean (Sprague–Dawley rats; [6]): 15.27 | Effect on DRL behavior, in words (Sprague–Dawley rats; rats DRL-72-s, 100 mg/kg): no effect on behavior | Functional antagonist activity, Kb hOX2 (human OX2 receptors [2]): inactive | Kb (human OX2 receptors [2]): > 10000 nM | Lever Presses Mean [3, 7]: 112.88 | Reinforcers Mean [3, 7]: 25.13 | Reinforcers received, effect in words ([3]; mice lacking OX2 receptors, 100 mg/kg): did not significantly affect | Lever presses emitted ([3]; mice lacking OX2 receptors, DRL-36-s, 100 mg/kg): 65 % of control | Receptor binding affinity, Ki OX2 (human OX2 receptors [4]; HEK293 membranes, [125I]-orexin A, 90 min, mean ± s.e.m. (n)): inactive | Ki (human OX2 receptors [4]; read-out: Receptor binding affinity, Ki OX2, HEK293 membranes, [125I]-orexin A, 90 min, mean ± s.e.m. (n)): > 10000 nM

CNC(=O)[C@@H](c1ccccc1)N1CCc2cc(OC)c(OC)cc2[C@@H]1CCc1ccc(C(F)(F)F)cc1 [Almorexant (S)]
Lever Presses Mean ([1]; dose 10 mg/kg): 111.38 | Reinforcers Mean ([1]; dose 10 mg/kg): 33.00 | Lever Presses Mean ([1]; dose 20 mg/kg): 124.75 | Reinforcers Mean ([1]; dose 20 mg/kg): 30.50 | Lever Presses Mean ([1]; dose 40 mg/kg): 108.25 | Reinforcers Mean ([1]; dose 40 mg/kg): 34.63 | Lever Presses Mean ([1]; dose 60 mg/kg): 110.13 | Reinforcers Mean ([1]; dose 60 mg/kg): 29.13 | Lever presses emitted, effect in words ([1]; mice lacking OX1 receptors, all doses 10–60 mg/kg): reduced the number of lever presses emitted | Reinforcers received, effect in words ([1]; mice lacking OX1 receptors, at 10 and 40 mg/kg): significant increase | Lever Presses Mean (Sprague–Dawley rats; dose 30 mg/kg PO): 42.73 | Reinforcers Mean (Sprague–Dawley rats; dose 30 mg/kg PO): 13.55 | Lever Presses Mean (Sprague–Dawley rats; dose 60 mg/kg PO): 51.91 | Reinforcers Mean (Sprague–Dawley rats; dose 60 mg/kg PO): 17.91 | Lever Presses Mean (Sprague–Dawley rats; dose 100 mg/kg PO): 45.09 | Reinforcers Mean (Sprague–Dawley rats; dose 100 mg/kg PO): 19.55 | Reduction in lever presses emitted, in words (Sprague–Dawley rats; rats DRL-72-s, PO, 30–100 mg/kg): did not reach statistical significance | Reinforcers received, effect in words (Sprague–Dawley rats; rats DRL-72-s, PO, significant at 100 mg/kg (Figure 5A legend)): significant increase | Doses with antidepressant-like efficacy in the rat DRL-72 sec model (Sprague–Dawley rats; reduced lever presses with increased reinforcers): 100 mg/kg | Kb (human OX2 receptors [2]): 1.73 ± 0.35 nM | Lever Presses Mean ([3]; dose 20 mg/kg): 162.63 | Reinforcers Mean ([3]; dose 20 mg/kg): 28.75 | Lever Presses Mean ([3]; dose 40 mg/kg): 179.25 | Reinforcers Mean ([3]; dose 40 mg/kg): 20.50 | Lever Presses Mean ([3]; dose 100 mg/kg): 158.13 | Reinforcers Mean ([3]; dose 100 mg/kg): 24.75 | Antidepressant-like effect in DRL, in words ([3]; mice lacking OX2 receptors, up to 100 mg/kg): completely abolished | Ki (human OX2 receptors [4]): 6.9 ± 0.18 nM
